Reference: patent US20150283127A1, “SAQUINAVIR-NO FOR IMMUNOMODULATION” (ONCONOX APS, priority 2012, published 2015)

Assays:
[1] = system: S6 phosphorylation (S6 kinase activity); assay: S6 phosphorylation in murine CD4+ cells (immunoblot); format: cell-based, mouse; conditions: anti-CD3 and anti-CD28, 24 hours
Description: Whole-cell lysates were prepared in a solution containing 62.5 mM Tris-HCl (pH 6.8, 2% w/v sodium dodecyl sulfate (SDS), 10% glycerol, 50 mM dithiothreitol (DTT), 0.01% w/v bromophenol blue, 1 mM phenylmethanesulphonyl fluoride or phenylmethylsulphonyl fluoride (PMSF), 1 μg/ml aprotinine, 2 mM EDTA and samples containing 20 μg of proteins (measured by Lowry protein assay) were electrophoresed on a 12% SDS-polyacrylamide gel. The samples were electro-transferred to polyvinylidene difluoride membranes at 5 mA/cm2, using semi-dry blotting system (Fastblot B43, Biorad, Muenchen, Germany). The blots were blocked with 5% w/v nonfat dry milk in PBS 0.1% Tween-20 and probed with specific antibodies to S6 and phosphorylated-S6 (Ser240/244) at 1:500 dilution (both from Cell Signaling Technology, Boston, Mass.), followed by incubation with secondary antibody at 1:10000 dilution (ECL donkey anti-rabbit horseradish peroxidase (HRP)-linked, GE Healthcare, Buckinghamshire, England, UK). […]
In an attempt to determine intracellular signaling that might be responsible for the observed influence of Saq-NO on the cytokines generation, level of S6 phosphorylation as the measure of S6 kinase activity was detected by immunoblot. CD4+ cells were stimulated with anti-CD3 and anti-CD28 in the presence of Saq-NO or Saq for 24 hours and cell lysates were subsequently obtained and analyzed.

PLP-induced EAE = PLP-induced EAE in SJL mice; format: in vivo
Text: Seven to 8 weeks-old male C57Bl6 mice and 6 to 7 weeks-old female SJL mice (Harlan Laboratories srl, San Pietro al Natisone, Udine, Italy) were used in the experiments. They were kept under standard laboratory conditions (non specific pathogen free) with free access to food (Harlan Global Diet 2018) and water and were allowed to adapt at least one week to their environment before commencing the study.
PLP (139-151) was synthesized by Genemed synthesis (San Francisco Calif.). EAE was induced as described by J. St. Louis et al. (4). The mice were immunized with 75 μg PLP emulsified in CFA with 6 mg/ml Mycobacterium tuberculosis H37RA (Difco, Detroit, Mich., USA) to make a 1:1 emulsion. Each mouse received subcutaneous injections of 200 μl emulsion divided among four sites draining into the axillary and inguinal lymph nodes. Pertussis toxin (Calbiochem, Nottingham, UK) was used as a co-adjuvant and was administered i.p. at the dose of […] on day 0 and 2 post immunization. The mice were observed every day by measuring their body weights and clinical signs of EAE until 30 days after immunization. These clinical grading were carried out by an observer unaware of the treatment: 0=no sign of disease; 0.5=partial tail paralysis; 1=tail paralysis; 1.5=tail paralysis+partial unilateral hindlimb paralysis; 2=tail paralysis+hindlimb weakness or partial hindlimb paralysis; 2.5=tail paralysis+partial hindlimb paralysis (lowered pelvi); 3=tail paralysis+complete hindlimb paralysis; 3.5=tail paralysis+complete hindlimb paralysis+incontinence; 4=tail paralysis+hindlimb paralysis+weakness or partial paralysis of forelimbs; 5=moribund or dead.
Four groups of 7/8 mice were treated under a late prophylactic regime from day 7 to day 30 as follow:
Group 1: Saquinavir 10 mg/Kg (i.p. once daily)
Group 2: Saq-NO 10 mg/Kg (s.c. once daily)
Group 3: Saq-NO 20 mg/Kg (i.p. once daily)
Group 4: DMSO/H2O (vehicle) (i.p. once daily)

murine CD4+ cells = assay: Cytokine generation (ELISA) in murine CD4+ cells stimulated with anti-CD3 and anti-CD28; format: cell-based, mouse; conditions: for Influence on IL-10 / TNF release: CD4+ cells
Text: Experimental animals (C57BL/6 mice, BALB/c mice and Dark Agouti rats) were obtained from the Animal House Facility of the Institute for Biological Research “Sinisa Stanković”, Belgrade, Serbia. Spleen cells (SPC) were isolated from murine spleens and lymph node cells (LNC) were obtained from rat cervical lymph nodes of untreated animals. Draining lymph node cells (DLNC) were obtained from popliteal lymph nodes 8-10 days after immunization of rats with myelin basic protein (guinea pig MBP, kind gift from professor Alexander Fluegel, University of Goettingen, Germany) and complete Freund's adjuvant (CFA, Difco, Detroit, Mich.). The organs were mechanically disrupted, passed through 40-μm nylon mesh filter and the resulting suspension was collected by centrifugation. Red blood cells from single cell suspensions obtained from spleens were lysed using RBC Lysis Buffer (eBioscience, San Diego, Calif.). CD4+ cells were purified from SPC using biotin conjugated antibody specific for CD4 (eBioscience) and IMag SAv particles plus (BD Biosciences, San Diego, Calif.). Obtained purity of CD4 population was more than 97% as determined by flow cytometry. SPC and LNC were seeded at 5×10^6/ml/well, DLNC at 2.5×10^6/ml/well and CD4+ cells at 1×10^6/ml/well of 24-well plates. Cells infiltrating spinal cords (SC) were obtained from SC of rats immunized with MBP+CFA at the time when rats suffered from severe clinical signs of experimental autoimmune encephalomyelitis (EAE). Rats were perfused with sterile PBS, SC were homogenized, adjusted to 30% Percoll (Sigma-Aldrich) and overlaid on 70% Percoll gradient. Following centrifugation at 870 g for 50 min the SC cells (SCC) were recovered from the […] Percoll interface and washed in RPMI-1640 medium. SCC were seeded at 0.5×106/200 μl/well of 96-well plates. SPC and LNC were stimulated with 2.5 μg/ml concanavalin A (ConA, Sigma-Aldrich), DLNC with MBP (10 ng/ml), CD4+ cells with anti-CD3 and anti-CD28 antibody (1 μg/ml each, both from eBioscience) and SCC were left untreated.
Cytokine concentration in cell culture supernatants was determined by sandwich ELISA using MaxiSorp plates (Nunc, Rochild, Denmark) and anti-cytokine paired antibodies according to the manufacturer's instructions. Samples were analyzed in duplicate for murine/rat IL-17, murine IL-10, murine TNF, murine IL-4 (eBioscience), murine IFN-γ, rat IFN-γ, rat IL-4 (R&D, Minneapolis, Minn.), rat IL-10 and rat TNF (BD Biosciences). The results were calculated using standard curves made on the basis of known concentrations of the appropriate recombinant cytokines.
CD4+ cells were purified from C57BL/6 SPC and stimulated with anti-CD3 and anti-CD28 antibodies in the presence of various concentrations of Saq-NO for 24 hours. The influence of Saq-NO on cytokine generation was compared to its influence on CD4+ cell viability and to the influence of Saq on the same parameters. […] Thus, Saq-NO directly affects T cell cytokine production.

[2] = late prophylactic, 10 mg/Kg once daily
[3] = anti-CD3 and anti-CD28, 24 hours

SMILES	S6 phosphorylation [1]	Cumulative score and duration of the disease compared to vehicle treated mice (PLP-induced EAE; [2])	Influence on IL-10 (murine CD4+ cells; [3])	TNF release (murine CD4+ cells; [3])	IL-17 secretion from purified CD4+ T cells at low concentrations (murine CD4+ cells; concentrations of 2.5 and 5 mM)	Clinical course of the disease (PLP-induced EAE; late prophylactic, 10 mg/Kg once daily, day 7 to 30)	Cum score and duration compared to vehicle-treated mice (PLP-induced EAE; late prophylactic, high dose 20 mg/Kg i.p. once daily)	Disease after interruption of the treatment (PLP-induced EAE; observed for further 20 days)	Generation of IFN-g, IL-4 and IL-17 (murine CD4+ cells; CD4+ cells of C57BL/6 SPC, anti-CD3 and anti-CD28, 24 hours)
CC(C)(C)NC(=O)[C@@H]1C[C@@H]2CCCC[C@@H]2CN1C[C@@H](O)[C@H](Cc1ccccc1)NC(=O)[C@H](CC(N)=O)NC(=O)c1ccc2ccccc2n1 [Saq, (2S)—N-[(2S,3R)-4-[(3S)-3-(tert-butylcarbamoyl)-decahydroisoquinolin-2-iy]-3-hydroxy-1-phenylbutan-2-il]-2-(quinolin-2-ylformamido)butanediamide, reference compound]	much weaker	lower but not significant	similarly potent	did not modulate	inhibitory effect	–	–	–	–
CC(C)(C)NC(=O)C1C[C@@H]2CCCC[C@@H]2CN1CC(O[N+](=O)[O-])[C@H](Cc1ccccc1)NC(=O)C(CC(N)=O)NC(=O)c1ccc2ccccc2n1 (stereo partly shown) [Saq-NO, nitric ester of Saquinavir]	diminished	significantly lower	similarly potent	did not modulate	–	ameliorated	lower but not significant	most evidently	more effectively than Saq
